Experimental data reported in patent publication US9567625B2, “Method for detection of microorganism and kit for detection of microorganism” (MORINAGA MILK INDUSTRY CO., LTD., priority 2006, dated 2017).

Assays:
[1] = test system: 23S rRNA gene of gram-negative bacteria and gram-positive bacteria; test: PCR targeting the 23S rRNA gene after EMA treatment, electrophoresis; format: cell-based; conditions: 150 ng template DNA in 50 μl
Description: (§1) The live cell counts of these live cell suspensions were Escherichia coli: 3.2×10^8 cfu/ml, Citrobacter: 6.7×10^7 cfu/ml, Salmonella: 1.9×10^8 cfu/ml, and Klebsiella: 4.8×10^8 cfu/ml.
(§2) The live cell counts of these live cell suspensions were Bacillus: 3.0×10^7 cfu/ml, Listeria: 1.3×10^8 cfu/ml, and Staphylococcus: 1.1×10^6 cfu/ml.
(§3) 10 μl of an EMA solution prepared at a concentration of 1000 μg/ml by dissolving EMA (Sigma, catalog number: E2028) in sterilized water, and filtering the solution through a 0.45-μm microfilter was added to each of the suspensions of the gram-negative bacteria (live cells and injured cells) and gram-positive bacteria (live cells and injured cells) in a volume of 1 ml, and the mixture was left at 4° C. for 30 minutes under light shielding. Then, the suspension was placed on ice, and irradiated with visible light of 500 W from a lamp (FLOOD PRF, 100 V, 500 W, Iwasaki Electric Co., Ltd.) disposed at a distance of 20 cm from the suspension for 10 minutes. The above steps of adding the EMA solution and irradiating visible light may also be referred to as the “EMA treatment”.
(§4) 990 μl of physiological saline was added to each microtube, and the mixture was sufficiently stirred. […]

[2] = test system: 16S rRNA gene of the other bacteria; test: PCR targeting the 16S rRNA gene after EMA treatment, electrophoresis; format: cell-based; conditions: EMA-treated injured cells of the other bacteria, EMA 10 μl of 1000 μg/ml per 1 ml, 4° C. 30 minutes, visible light 10 minutes
Description: as §1, §2, §3, §4

[3] = test system: 16S rRNA gene of Klebsiella; test: as above; format: cell-based, Klebsiella oxytoca; conditions: EMA-treated injured cells of Klebsiella, EMA 10 μl of 1000 μg/ml per 1 ml, 4° C. 30 minutes, visible light 10 minutes
Description: as §1, §3, §4

hlyA gene of Listeria = test: PCR targeting the hlyA gene after EMA treatment and topoisomerase poison or DNA gyrase poison treatment; format: cell-based, Listeria monocytogenes; conditions: Listeria injured cells
Description: (§5) The live cell count of the live cell suspension was 1.3×10^8 cfu/ml
(§6) Therefore, the time for leaving the suspension at 4° C. under light shielding after the addition of EMA was shortened to 5 minutes, and the visible light irradiation time was also shortened to 5 minutes.
(§7) As described above, 1 tube of 1 ml EMA-untreated live cell suspension, […] of 1 ml EMA-treated live cell suspension, 1 tube of 1 ml EMA-untreated injured cell suspension, and 7 tubes of 1 ml EMA-treated injured cell suspension were prepared.
(§8) The EMA-treated live cell and injured cell suspensions were divided into 6 sets, each of which consisted of 1 tube of the live cell suspension and 1 tube of injured cell suspension.
(§9) A master mix (total volume: 50 μl) of the following composition was prepared. • Ex-Taq® (Takara Shuzo, catalog number: RR001B; TaKaRa Ex Taq enzyme): 0.25 μl • 10× Ex-Taq® Buffer (Takara Shuzo, catalog number: RR001B): 5 μl • dNTP mixture (Takara Shuzo, catalog number: RR001B): 4 μl • 5 pmol/μl SEQ ID NO: 7 (hlyA-F) DNA: 2.5 μl • 5 pmol/μl SEQ ID NO: 8 (hlyA-R) DNA: 2.5 μl • 2×SYBR® Green (cyanine dye) (BMA, catalog number: 50513): 10 μl • Sterilized water: 15.75 μl • Template DNA (15 ng/μl): 10 μl 3-1-2) PCR Thermal Cycle Profile for Amplification of hlyA Gene
(§10) Each of the DNA solutions prepared in 2-3) mentioned above was diluted to 15 ng/μl with TE buffer, and 10 μl of the diluted solution was used as a template DNA in 3-1-1) mentioned above. That is, 150 ng of the template DNA was contained in 50 μl of the PCR mixture. As a negative control, 10 μl of TE buffer was used.
According to the PCR thermal cycle profile shown in 3-1-2) mentioned above, PCR was performed by using a real-time PCR apparatus i Cycler® (Biorad, model number: iQ).
(§11) For the detection of the hlyA gene amplification product, 3% agarose gel was used.

[4] = test system: 16S rRNA gene of Citrobacter; test: PCR targeting the 16S rRNA gene after EMA treatment, electrophoresis; format: cell-based, Citrobacter koseri; conditions: EMA-treated injured cells of Citrobacter, EMA 10 μl of 1000 μg/ml per 1 ml, 4° C. 30 minutes, visible light 10 minutes
Description: as §1, §3, §4

[5] = test system: 16S rRNA gene of Listeria; test: PCR targeting the 16S rRNA gene after EMA treatment and topoisomerase poison or DNA gyrase poison treatment; format: cell-based, Listeria monocytogenes; conditions: Listeria injured cells
Description: as §5, §6, §7, §8
The “PCR thermal cycle profile for amplification of 16S rRNA gene” mentioned in Example 3, 3-2) (Table 3) was applied.
as §10, with “2-3)” for “2-3) mentioned above”, “3-1-1) or 3-2-1)” for “3-1-1)”
According to the PCR thermal cycle profile shown in 3-2-2) or 3-2-3) mentioned above, PCR was performed by using a real-time PCR apparatus i Cycler® (Biorad, model number: iQ).
as §11

[6] = test system: 23S rRNA gene of Enterobacter; test: Real-time PCR and TM analysis targeting the 23S rRNA gene after ciprofloxacin treatment; format: cell-based, Enterobacter sakazakii; conditions: ciprofloxacin 72 hours; for result of PCR: PCR terminated after 27 cycles
Description: as §9, with “enzyme:” for “enzyme):”, “1 (23S-F)” for “7 (hlyA-F)”, “2 (23S-R) DNA: 2.5 μl • 5 pmol/μl SEQ ID NO: 3 (23S-MF) DNA: 2.5 μl • 5 pmol/μl SEQ ID NO: 4 (23S-MR)” for “8 (hlyA-R)”, “μl” for “μl 3-1-2) PCR Thermal Cycle Profile for Amplification of hlyA Gene”
The primers of SEQ ID NOS: 1 and 2 are primers for amplifying substantially all the region of 23S rRNA, and they provide an amplification fragment of about 2840 bp mainly from gram-negative bacteria. The primers of SEQ ID NOS: 3 and 4 correspond to the center region of 23S rRNA, and they provide an amplification fragment of about 900 bp from gram-positive bacteria (also from gram negative bacteria).
Each of the DNA solutions prepared in 1-3) was diluted to 15 ng/μl with TE buffer, and 10 μl of the diluted solution was used as a template DNA in 2-1). That is, 150 ng of the template DNA was contained in 50 μl of the PCR reaction mixture. As a negative control, 10 μl of TE buffer was used.
According to the PCR thermal cycle profile shown in 2-2) mentioned above, PCR and TM analysis (melting temperature analysis) of the amplification product were performed by using a real-time PCR apparatus i Cycler® (Biorad, model number: iQ). The threshold value (boundary value) of real-time PCR was set to a value obtained by multiplying the standard deviation SD of fluorescence amounts obtained with SYBR® Green (cyanine dye) for 0 to 10 cycles by 10. In each real-time PCR amplification curve, number of cycle showing a value exceeding the threshold value is referred to as “Ct value” hereafter.

[7] = test system: 23S rRNA gene of Listeria; test: Real-time PCR targeting the 23S rRNA gene after ciprofloxacin treatment; format: cell-based, Listeria monocytogenes; conditions: PCR terminated after 20 cycles
Description: as §9, with “enzyme:” for “enzyme):”, “1 (23S-F)” for “7 (hlyA-F)”, “2 (23S-R) DNA: 2.5 μl • 5 pmol/μl SEQ ID NO: 3 (23S-MF) DNA: 2.5 μl • 5 pmol/μl SEQ ID NO: 4 (23S-MR)” for “8 (hlyA-R)”, “μl” for “μl 3-1-2) PCR Thermal Cycle Profile for Amplification of hlyA Gene”
The primers of SEQ ID NOS: 1 and 2 are primers for amplifying substantially all the region of 23S rRNA, and they provide an amplification fragment of about 2840 bp mainly from gram-negative bacteria. […]
According to the PCR thermal cycle profile shown in 2-2) mentioned above, PCR and TM analysis (melting temperature analysis) of the amplification product were performed by using a real-time PCR apparatus i Cycler® (Biorad, model number: iQ). The threshold value (boundary value) of real-time PCR was set to a value obtained by multiplying the standard deviation SD of fluorescence amounts obtained with SYBR® Green (cyanine dye) for 0 to 10 cycles by 10. […]

[8] = EMA treatment alone (5 minutes, visible light 5 minutes)
[9] = poison used together with EMA treatment, 30° C. for 30 minutes

SMILES: CC[n+]1c(-c2ccccc2)c2cc(N=[N+]=[N-])ccc2c2ccc(N)cc21 [EMA, ethidium monoazide]
- inhibition of PCR ([1]; injured cells at a level of 10^8 cfu/ml): completely inhibited
- inhibition of PCR ([1]; live cells): not substantially completely inhibited
- PCR amplification product [2]: amplification products were observed
- PCR amplification product [3]: no PCR amplification product was observed
- inhibition of DNA amplification (hlyA gene of Listeria; [8]): only slightly inhibited
- PCR amplification product [4]: no PCR amplification product was observed
- inhibition of DNA amplification [5, 8]: only slightly inhibited

SMILES: CC[C@@]1(O)C(=O)OCc2c1cc1n(c2=O)Cc2cc3ccccc3nc2-1 [camptothecin]
- inhibition of DNA amplification [5, 9]: markedly inhibited

SMILES: O=C(O)c1cn(C2CC2)c2cc(N3CCNCC3)c(F)cc2c1=O [ciprofloxacin]
- Ct (injured cells, 72 hours of Cip)−Ct (injured cells, No Cip) ([6]; Enterobacter injured cells): 17
- result of PCR ([6]; Enterobacter injured cells): negative
- Ct (live cells, 72 hours of Cip)−Ct (live cells, No Cip) ([6]; Enterobacter live cells): 13
- result of PCR ([6]; Enterobacter live cells): positive
- TM pattern analysis of the PCR amplification product ([6]; Enterobacter sakazakii injured cells): is not the targeted amplification product
- TM pattern analysis of the PCR amplification product ([6]; Enterobacter sakazakii live cells): corresponds to the 23S rRNA gene as the target
- result of PCR ([7]; Listeria injured cells): negative
- result of PCR ([7]; Listeria live cells): positive

SMILES: Cc1c2ccncc2c(C)c2c1[nH]c1ccccc12 [ellipticine]
- inhibition of DNA amplification [5, 9]: markedly inhibited

SMILES: COc1cc([C@@H]2c3cc4c(cc3[C@@H](O[C@@H]3O[C@@H]5CO[C@@H](C)O[C@H]5[C@H](O)[C@H]3O)[C@H]3COC(=O)[C@H]23)OCO4)cc(OC)c1O [etoposide]
- inhibition of DNA amplification (hlyA gene of Listeria; [9]): markedly inhibited
- inhibition of DNA amplification [5, 9]: markedly inhibited

SMILES: O=C1c2c(O)ccc(O)c2C(=O)c2c(NCCNCCO)ccc(NCCNCCO)c21 [mitoxantrone]
- inhibition of DNA amplification (hlyA gene of Listeria; [9]): markedly inhibited
